From the Kinase Knowledgebase extract (Sharma et al. 2016) come the findings set out here.

Molecules are shown by their SMILES.

For this assay, the target named is PIK3CD (Human) (UniProt O00329). The experiment in a line: Enzyme Assay.
Chain of PIK3CD (Human) (O00329 whole entry, looked up): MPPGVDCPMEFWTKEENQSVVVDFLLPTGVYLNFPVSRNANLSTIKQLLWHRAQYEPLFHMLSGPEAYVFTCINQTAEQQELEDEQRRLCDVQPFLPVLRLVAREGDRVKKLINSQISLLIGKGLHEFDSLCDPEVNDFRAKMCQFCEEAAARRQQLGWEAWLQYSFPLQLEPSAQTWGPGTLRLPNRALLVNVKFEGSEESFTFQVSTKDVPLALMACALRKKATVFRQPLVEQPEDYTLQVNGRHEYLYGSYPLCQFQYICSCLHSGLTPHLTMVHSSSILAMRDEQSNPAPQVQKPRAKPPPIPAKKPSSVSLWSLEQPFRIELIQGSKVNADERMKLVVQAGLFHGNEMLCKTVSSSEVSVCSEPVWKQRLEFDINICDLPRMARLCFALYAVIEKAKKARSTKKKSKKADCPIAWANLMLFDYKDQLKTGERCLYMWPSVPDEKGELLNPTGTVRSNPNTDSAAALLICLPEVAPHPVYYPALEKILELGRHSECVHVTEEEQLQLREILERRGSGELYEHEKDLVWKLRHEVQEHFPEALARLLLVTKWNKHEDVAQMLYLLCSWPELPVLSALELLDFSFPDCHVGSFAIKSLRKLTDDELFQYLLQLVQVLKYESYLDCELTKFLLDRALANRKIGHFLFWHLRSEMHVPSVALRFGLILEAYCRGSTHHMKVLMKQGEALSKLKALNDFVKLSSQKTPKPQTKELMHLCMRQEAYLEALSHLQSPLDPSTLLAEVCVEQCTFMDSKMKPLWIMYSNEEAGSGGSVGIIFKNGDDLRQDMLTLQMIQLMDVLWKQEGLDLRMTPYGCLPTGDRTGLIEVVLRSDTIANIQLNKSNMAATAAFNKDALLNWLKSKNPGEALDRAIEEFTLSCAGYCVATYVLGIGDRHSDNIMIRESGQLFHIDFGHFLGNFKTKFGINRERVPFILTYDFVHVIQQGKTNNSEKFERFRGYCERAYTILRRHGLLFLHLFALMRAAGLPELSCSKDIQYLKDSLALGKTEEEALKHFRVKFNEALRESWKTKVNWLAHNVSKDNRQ

`C[C@H](Nc1ncnc(N)c1C#N)c1nc2ccc(F)cc2n1-c1ccc(-c2cccnc2)nc1` had a Ki of 248 nM. This lies in the sub-micromolar range. The same measure for `C[C@@H](Nc1ncnc(N)c1C#N)c1nc2ccc(F)cc2n1-c1cccc(C#N)c1.C[C@H](Nc1ncnc(N)c1C#N)c1nc2ccc(F)cc2n1-c1cccc(C#N)c1`: 28.8 nM; for `C[C@@H](Nc1ncnc(N)c1C#N)c1nc2cccc(C#N)c2n1-c1cncc(F)c1.C[C@H](Nc1ncnc(N)c1C#N)c1nc2cccc(C#N)c2n1-c1cncc(F)c1`: 177 nM; for `C[C@@H](Nc1ncnc(N)c1C#N)c1nc2cccc(Br)c2n1-c1cncc(F)c1.C[C@H](Nc1ncnc(N)c1C#N)c1nc2cccc(Br)c2n1-c1cncc(F)c1`: 69.7 nM. The same measure for `C[C@@H](Nc1ncnc(N)c1C#N)c1nc2cc(F)ccc2n1-c1cncc(F)c1.C[C@H](Nc1ncnc(N)c1C#N)c1nc2cc(F)ccc2n1-c1cncc(F)c1`: 148 nM. The same measure for `C[C@@H](Nc1ncnc(N)c1C#N)c1nc2ccc(F)cc2n1-c1cncc(Br)c1.C[C@H](Nc1ncnc(N)c1C#N)c1nc2ccc(F)cc2n1-c1cncc(Br)c1`: 46.1 nM.

`CNC(=O)c1cccc2nc([C@@H](C)Nc3ncnc(N)c3C#N)n(-c3cncc(F)c3)c12.CNC(=O)c1cccc2nc([C@H](C)Nc3ncnc(N)c3C#N)n(-c3cncc(F)c3)c12` returned a Ki of 90.1 nM.

As to `CNC(=O)c1cccc(-n2c([C@@H](C)Nc3ncnc(N)c3C#N)nc3ccc(F)cc32)c1.CNC(=O)c1cccc(-n2c([C@H](C)Nc3ncnc(N)c3C#N)nc3ccc(F)cc32)c1`, the Ki amounted to 30.6 nM. The same measure for `C[C@@H](Nc1ncnc(N)c1C#N)c1nc2c(F)cccc2n1-c1cncc(F)c1.C[C@H](Nc1ncnc(N)c1C#N)c1nc2c(F)cccc2n1-c1cncc(F)c1`: 86.1 nM. The same measure for `C[C@@H](Nc1ncnc(N)c1C#N)c1nc2cccc(S(C)(=O)=O)c2n1C1CC1.C[C@H](Nc1ncnc(N)c1C#N)c1nc2cccc(S(C)(=O)=O)c2n1C1CC1`: 3.76 nM; for `C[C@@H](Nc1ncnc(N)c1C#N)c1nc2ccc(F)cc2n1-c1cncc(NS(C)(=O)=O)c1.C[C@H](Nc1ncnc(N)c1C#N)c1nc2ccc(F)cc2n1-c1cncc(NS(C)(=O)=O)c1`: 14.4 nM. In turn, `C[C@@H](Nc1ncnc(N)c1C#N)c1nc2ccc(F)cc2n1-c1ccc(-c2cccnc2)nc1` registered a Ki of 1190 nM. Molecule `C[C@@H](Nc1ncnc(N)c1C#N)c1nc2ncccc2n1-c1ccccn1.C[C@H](Nc1ncnc(N)c1C#N)c1nc2ncccc2n1-c1ccccn1` came in with an inhibition constant (Ki) of 2900 nM.

With `C[C@@H](Nc1ncnc(N)c1C#N)c1nc2c(F)cc(F)cc2n1-c1cccnc1.C[C@H](Nc1ncnc(N)c1C#N)c1nc2c(F)cc(F)cc2n1-c1cccnc1`, the inhibition constant (Ki) came to 22.2 nM. The same measure for `C[C@@H](Nc1ncnc(N)c1C#N)c1nc2ccc(F)cc2n1-c1cccc(F)n1.C[C@H](Nc1ncnc(N)c1C#N)c1nc2ccc(F)cc2n1-c1cccc(F)n1`: 24.7 nM.
